Columns and labels:
[1] = tested on: bovine monocyte-derived macrophages; test: LPS-induced cytokine response of CATH2-trained monocyte-derived macrophages (U-Plex MSD); assay type: cell-based; conditions: CATH2 24 hr, removal, 3-day rest, LPS 1 μg/mL 24 hours; vs vehicle
Excerpt: (§1) Peripheral blood mononuclear cells (PBMC) were isolated from bovine blood using ficoll gradients. Bovine monocytes were isolated from PBMC using magnetic assisted cell sorting to positively select for CD14+ cells using anti-human CD14 microbeads (Miltenyi Biotec). Purified bovine blood CD14+ monocytes were differentiated into macrophages using an M2-skewing differentiation factor (recombinant bovine M-CSF) over 7 days then exposed to CATH2 or a vehicle control in the presence of bovine casein to mimic aspects of the mammary gland for 24 hr. […] Following the rest period, a subset of vehicle- and CATH2-trained monocyte-derived macrophages were assessed for epigenetic and transcriptomic changes. The remaining cells were challenged with LPS or E. coli bioparticle labeled with pH-sensitive pHrodo green dye and key parameters for macrophage activation/immune response were assessed including glycolytic activity, surface marker expression, gene expression, cytokine production, phagocytosis, reactive nitrogen species production, and miRNA profiling.
Cytokine levels in cell culture supernatant (IL-8/CXCL8, IL-6, TNFα, IL-1β, IL-10, IL-12p40) were quantified using customized U-Plex assays (MesoScale Diagnostics, LLC). […] Raw data were analyzed using MSD DISCOVERY BENCHWORK.

[2] = tested on: bovine monocyte-derived macrophages; test: Phagocytosis of pHrodo green-labeled E. coli bioparticle (IncuCyte); assay type: cell-based; conditions: <4 hr from challenge with E. coli bioparticles (10 μg/mL); after CATH2 24 hr and 3-day rest; vs vehicle
Excerpt: as §1, with “profiling. In brief, E. coli bioparticle labeled with pHrodo-green pH sensitive dye (Invitrogen) were added to monocyte-derived macrophages and phase and green fluorescence was captured over time using the S3 IncuCyte® Live-Cell Analysis System (Essen Bioscience) over a period of 24-hr. […]” for “profiling.”

In the case of “RFGRFLRKIRRFRPKVTITIQGSARFG [CATH2, cathelicidin 2 peptide]”, the “LPS-induced cytokine production (IL-12p40, IL-6, TNFα, IL-8, IL-1β, IL-10)” value [1] is reported as “enhanced production of both pro- and anti-inflammatory cytokines/chemokines” and the “Phagocytosis of E. coli bioparticles” value [2] is reported as “enhanced phagocytosis of E. coli bioparticles”.

Reference: patent US20250295732A1, “COMPOSITIONS AND METHODS FOR ACTIVATING INNATE IMMUNITY” (Zoetis Services LLC, priority 2021, published 2025)
